Data as given in publication PMC9139161, “Phenolics from Chrozophora oblongifolia Aerial Parts as Inhibitors of α-Glucosidases and Advanced Glycation End Products: In-Vitro Assessment, Molecular Docking and Dynamics Studies” (Biology, 2022).
Values joined by “and” are separate entries in the source; they are usually repeats but may differ in a detail not shown here. Identical values can stand only once. Like-named read-outs stand apart in the source and are kept apart here.

How the values were obtained:
[1] = Ferric reducing antioxidant power (FRAP) assay; conditions: ascorbic acid equivalents; mean ± SD, n = 3
Protocol: Isolated compounds were dissolved in DMSO to prepare a 0.5 mg/mL concentration, meanwhile, the positive control (ascorbic acid) was used to prepare a stock solution of 1000 µM in water; from which seven concentrations were prepared including 15.625, 31.25, 62.5, 125, 250 and 500 µM to construct the dose-response curve. The method of the assay depends on the reduction of Fe^3+ to Fe^2+, which is chelated by 2,4,6-tris(2-pyridyl)-s-triazine (TPTZ) to form Fe^2+-TPTZ complex which is known as FRAP (ferric reducing antioxidant power). Briefly, 190 μL of FRAP reagent (300 mM sodium acetate buffer pH 3.6, 10 mM TPTZ, and 20 mM ferric chloride, (10:1:1)) was incubated in the dark with 10 μL of the isolated compound in a 96-well plate for 30 min at 37 °C and absorbance was determined at 620 nm using microplate reader (Tecan, San Jose, CA, USA). Data are represented as means (n = 3) ± SD and the antioxidant effect of the extract was calculated as µM Ascorbic acid equivalents by substitution in the linear regression equation (Supplementary Figure S3).

[2] = tested on: advanced glycation end products (AGEs) formation, BSA-methylglyoxal model; assay: AGEs formation inhibition, BSA-methylglyoxal assay; format: biochemical; conditions: AGEs fluorescence, 72 h, 37 °C; read-out: BSA-Methylglyoxal Model IC50 (Mean ± SE)
Protocol: The isolated compounds were prepared at final concentrations of 500 µM in DMSO in the BSA-fructose assay, and 1000 µM in all other AGEs assays. Compounds that exceeded 50% inhibition at this concentration were serially diluted to determine their IC50. All tests were conducted using quercetin (positive control).
AGEs inhibitory activity of the isolated compounds was determined according to the reported procedures with slight modification. Briefly, in black 96-microwell plates, samples were incubated for 72 h at 37 °C in the dark with bovine serum albumin (BSA, 50 mg/mL) (in 200 mM phosphate buffer, pH 7.4, with 0.02% sodium azide) and methyl-glyoxal (53.3 mM, in distilled water), (1:1:1 v/v/v). On a microplate reader (Fluostar Omega/BMG Labtech/Germany), fluorescent AGEs were detected using excitation and emission wavelengths of 355 nm and 460 nm, respectively. Triplicates of all experiments were performed.

[3] = molecular target: T1, α-Glucosidase from Saccharomyces cerevisiae (Saccharomyces cerevisiae, UniProt P53341); assay: α-Glucosidase inhibition (pNPG colorimetric); format: biochemical
T1 construct: purchased Sigma-Aldrich G003
Protocol: α-Glucosidase from Saccharomyces cerevisiae (Sigma-Aldrich, St. Louis, MO, USA cat#G003) was used in this assay. Solutions of the different compounds were prepared in 1000 µM final concentrations in dimethyl sulfoxide (DMSO). Compounds that exceeded 50% inhibition at this concentration were serially diluted to determine their half-maximal inhibitory concentration (IC50).
Briefly, 25 μL of samples/blank were incubated for 10 min at 37 °C with 50 μL of α-glucosidase (0.6 U/mL) in phosphate buffer (0.1 M, pH 7) in 96-microwell plates. The mixture was then incubated at 37 °C for 5 min with 25 μL of 3 mM pNPG in phosphate buffer (pH 7). A microplate reader (TECAN, Männedorf, Switzerland) was used to measure p-nitrophenol release from pNPG substrate at 405 nm to determine enzyme activity. Then, % α-glucosidase inhibition was estimated.

[4] = molecular target: T2, porcine pancreatic lipase type II (Sus scrofa, UniProt P00591); assay: Pancreatic lipase inhibition (p-NPD substrate); format: biochemical; conditions: for IC50: porcine pancreatic lipase, p-NPD substrate, read-out: Pancreatic lipase IC50 (Mean ± SE)
T2 construct: purchased sigma Aldrich L3126
T2 sequence (P00591 1-450): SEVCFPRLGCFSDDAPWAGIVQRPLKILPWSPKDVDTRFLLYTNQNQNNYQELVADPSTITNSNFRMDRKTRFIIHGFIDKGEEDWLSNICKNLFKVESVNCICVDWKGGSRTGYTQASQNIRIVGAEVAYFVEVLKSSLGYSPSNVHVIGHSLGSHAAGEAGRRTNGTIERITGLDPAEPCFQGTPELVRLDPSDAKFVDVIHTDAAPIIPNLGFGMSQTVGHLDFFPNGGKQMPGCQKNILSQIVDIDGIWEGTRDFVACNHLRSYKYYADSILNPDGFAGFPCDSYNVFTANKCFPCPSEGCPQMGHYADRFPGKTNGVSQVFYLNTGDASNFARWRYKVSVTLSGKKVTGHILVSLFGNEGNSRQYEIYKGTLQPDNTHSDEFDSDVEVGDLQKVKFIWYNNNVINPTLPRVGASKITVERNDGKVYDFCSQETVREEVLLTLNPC
Protocol: The inhibition of pancreatic lipase activity was assessed using p-nitrophenyl dodecanoate (p-NPD, Sigma-Aldrich, St. Louis, MO, USA cat#N0252) as substrate and porcine pancreatic lipase type II (PPL, sigma Aldrich, cat#L3126) which was described previously with slight modification. Solutions of the provided compounds were prepared in final concentrations of 50 µM in 5% DMSO. […] In a Tris-HCl buffer (100 mM, pH 8); 50 μL of PPL (1 mg/mL) was incubated with 25 μL of samples/blank for 10 min at 37 °C. Then, 10 μL of solution p-NPD (10 mM, in isopropanol) was added followed by dilution of the final volume to 200 μL with Tris-HCl buffer. The mixture was incubated for 20 min at 37 °C and absorbance was then measured at 405 nm on a TECAN microplate reader (Männedorf, Switzerland). After that, the percentage of lipase inhibition was assessed (Supplementary Table S1 and Figure S1).

[5] = Saccharomyces cerevisiae enzyme, pNPG substrate, read-out: α-Glucosidase assay IC50 (Mean ± SE)

T1 sequence (P53341 whole entry): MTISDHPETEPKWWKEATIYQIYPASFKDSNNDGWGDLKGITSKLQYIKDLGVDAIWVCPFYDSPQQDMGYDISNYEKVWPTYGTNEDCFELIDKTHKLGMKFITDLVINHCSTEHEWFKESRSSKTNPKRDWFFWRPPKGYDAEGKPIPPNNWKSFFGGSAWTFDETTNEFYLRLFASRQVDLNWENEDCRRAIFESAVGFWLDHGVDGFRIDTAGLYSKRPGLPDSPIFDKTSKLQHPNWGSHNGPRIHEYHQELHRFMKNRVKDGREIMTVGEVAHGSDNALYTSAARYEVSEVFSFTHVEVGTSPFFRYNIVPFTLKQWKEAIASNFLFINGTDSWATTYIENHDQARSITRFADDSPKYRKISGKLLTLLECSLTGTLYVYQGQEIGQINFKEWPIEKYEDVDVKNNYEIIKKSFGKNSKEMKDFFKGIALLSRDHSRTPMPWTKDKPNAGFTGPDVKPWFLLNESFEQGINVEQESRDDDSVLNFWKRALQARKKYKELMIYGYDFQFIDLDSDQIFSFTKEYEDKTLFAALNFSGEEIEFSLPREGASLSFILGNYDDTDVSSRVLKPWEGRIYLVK

IC50 [2] | inhibition at 50 µM [4] | IC50 [4] | IC50 [3, 5] | Pancreatic lipase inhibitory effect (in words) ([4]; till 50 μM concentration) | Structure (SMILES) | FRAP [1] | IC50 [3]
657 µM | – | > 50 µM | 4.5 µM | did not show any inhibitory effect | O=C(OC[C@H]1O[C@H](OC(=O)c2cc(O)c(O)c(O)c2)[C@H](O)[C@@H](OC(=O)c2cc(O)c(O)c(O)c2)[C@@H]1O)c1cc(O)c(O)c(O)c1 (stereo in doubt) [Compound 5, 1,3,6-trigalloyl glucose] | 7.228±0.279 mM AAE/mg and 7.23 mM AAE/mg | –
> 1200 µM | 2.26% | > 50 µM | 385 µM | – | O=C(O)[C@H]1O[C@@H](Oc2c(-c3ccc(O)c(O)c3)oc3cc(O)cc(O)c3c2=O)[C@H](O)[C@@H](O)[C@H]1O [Compound 3, quercetin-3-O-β-D-galacturonic acid] | 0.494±0.066 mM AAE/mg and 0.49 mM AAE/mg | –
1880 µM | 1.92% | > 50 µM | 545 µM | – | O=C(O)[C@H]1O[C@@H](Oc2c(-c3ccc(O)c(O)c3)oc3cc(O)cc(O)c3c2=O)[C@H](O)[C@@H](O)[C@@H]1O [Compound 2, quercetin-3-O-β-D-glucuronic acid] | 0.727±0.021 mM AAE/mg and 0.73 mM AAE/mg | –

Structure (SMILES) | IC50 [2] | inhibition at 50 µM [4] | IC50 [4] | IC50 [3, 5] | Pancreatic lipase inhibitory effect (in words) ([4]; till 50 μM concentration) | FRAP [1] | IC50 [3]
O=c1cc(-c2ccc(O)cc2)oc2cc(O[C@@H]3O[C@H](CO)[C@@H](O)[C@H](O)[C@H]3O)cc(O)c12 [Compound 1, apeginin-7-O-β-D-glucoside] | 668 µM | 4.48% | > 50 µM | – | – | 0.225±0.003 mM AAE/mg and 0.23 mM AAE/mg | 408 µM
C[C@@H]1O[C@@H](OC[C@H]2O[C@@H](Oc3c(-c4ccc(O)c(O)c4)oc4cc(O)cc(O)c4c3=O)[C@H](O)[C@@H](O)[C@@H]2O)[C@H](O)[C@H](O)[C@H]1O [Compound 4, rutin] | 493 µM | – | > 50 µM | – | – | 2.658±0.168 mM AAE/mg and 2.66 mM AAE/mg | 754 µM
